Activity calls are given as the source filed them.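 The calls were made as follows: active = inhibition of esterase secretion above 50%; inactive = inhibition of esterase secretion below 50%.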
These molecules were tested on TALL-104 cells, BLT esterase secretion, DTNB absorbance (assay: blockers of BLT esterase secretion from TALL-104 – TALL-104 cells, BLT/DTNB absorbance, CherryPick01, confirmation (AID 720662)). Conditions: hits give high values; dose or concentration not given here.

Row | Compound | inhibition
1 | O=C(Cn1sc2ccccc2c1=O)NC12CC3CC(CC(C3)C1)C2 | 33% (inactive)
2 | CN(C)CCNC(=O)c1ccc(-c2cn3c(-c4ccc(Oc5ccccc5)cc4)cnc3cn2)cc1 | 14% (inactive)
3 | COC(=O)c1c(NC(=O)c2ccc(C(=O)c3ccccc3)cc2)sc2c1CC(C)(C)NC2(C)C | 5% (inactive)
4 | N#Cc1ccc(NC(=O)Nc2ccc(Oc3ccc(NC(=O)Nc4ccc(C#N)cc4)cc3)cc2)cc1 | 36% (inactive)
5 | O=c1c2ccccc2sn1-c1ccccc1F | 38% (inactive)
6 | COc1cc(-c2coc3c(C(=O)NCc4ccc(OC)c(OC)c4)cccc23)ccc1O | 20% (inactive)
7 | CC(C)CNC(=O)c1c(N)n(Cc2ccc3c(c2)OCO3)c2nc3ccccc3nc12 | 3% (inactive)
8 | Cc1ccc(S(=O)(=O)n2ccc3c(OCCOCCNCc4ccc(F)cc4)cccc32)cc1 | 67%
9 | CN1CCN(c2cc(-c3ccccc3)nc3cc(-c4ccc(F)cc4)nn23)CC1 | 79%
10 | CCCCC[C@@H](C)N1C[C@@H](COCc2ccccc2)Oc2cc(N3CC[C@@H](N(C)C)C3)ccc2S1(=O)=O | 76%
11 | O=C1CC(Sc2nnnn2-c2ccccc2)C(=O)N1c1cccc(Cl)c1 (stereo not given) | 72%
12 | Nc1c(C(=O)NCc2ccc(F)cc2)c2nc3ccccc3nc2n1CCCN1CCOCC1 | 15% (inactive)
13 | CCCCC[C@@H](C)N1C[C@@H](COCc2ccccc2)Oc2cc(N3CC[C@H](N(C)C)C3)ccc2S1(=O)=O | 74%
14 | CC1=C(C)CS(=O)N(S(=O)(=O)c2ccc(Cl)cc2)C1 (stereo not given) | 99%
15 | Cc1cc(N2CCN(c3nc(-c4ccc([N+](=O)[O-])cc4)cs3)CC2)c2ccccc2n1 | 80%
16 | CC1COCC(C)N1C1=C(Cl)C(=O)c2ccccc2C1=O (stereo not given) | 97%
17 | O=C(Nc1ccc(F)cc1)c1nc(S(=O)(=O)Cc2ccccc2)ncc1Cl | 97%
18 | OC(CNCC(c1ccc(Cl)cc1Cl)c1c[nH]c2ccccc12)c1ccccc1 (stereo not given) | 2% (inactive)
19 | COc1cccc(-c2cnc3c(NC=O)cc(-c4ccccc4)cn23)c1 | 43% (inactive)
20 | Fc1ccc(/C=C\c2nccc3c2[nH]c2ccccc23)cc1 | 86%
21 | COc1ccc(N2C(=O)CC(Sc3nnc(-c4ccccc4)o3)C2=O)cc1 (stereo not given) | 89%
22 | CCOc1ccc2nc(C)cc(Nc3cccc([N+](=O)[O-])c3)c2c1 | 95%
23 | CCCNC(=O)Cn1sc2nc(C)cc(C)c2c1=O | 38% (inactive)
24 | O=C1Nc2ccc(Br)cc2/C1=C/C(=O)c1ccccc1 | 3% (inactive)
25 | COC(=O)[C@]12CCCCC=C1N(Cc1cccc3ccccc13)C(=O)[C@H](CC(=O)NCc1ccc(OC)c(OC)c1)C2 | 14% (inactive)

Row | Compound | inhibition
26 | CC(=O)Nc1ccc2c(=O)n(-c3ccccc3)sc2c1 | 25% (inactive)
27 | O=c1c2ccc(F)cc2sn1-c1ccccc1 | 61%
28 | Cc1cc(C)c2nc(C)cc(N/N=C/c3ccc(O)cc3)c2c1 | 88%
29 | COc1ccc(-c2cc(NC=O)c3ncc(-c4cccc(OC)c4)n3c2)cc1 | 77%
30 | O=C1C=CC(=O)N1N(c1ccccc1)c1ccccc1 | 27% (inactive)
31 | COc1cccc(-c2cnc3c(NC(C)=O)cc(-c4ccccc4OC)cn23)c1 | 68%
32 | Cc1ccc(-n2nnc3c(=O)oc4ccccc4c32)cc1 | 94%
33 | CCOc1ccccc1CNC(=O)C1CCN(c2nnc(C)c3c(C)n(-c4ccc(C)cc4)nc23)CC1 | 94%
34 | COc1ccccc1CNc1nc(NCc2ccc3occc3c2)c2sccc2n1 | 22% (inactive)
35 | CCCS(=O)(=O)Nc1ccc(Nc2c3ccccc3nc3ccccc23)c(OC)c1 | 81%
36 | COc1cccc(-c2cnc3c(NC(C)=O)cc(-c4ccsc4)cn23)c1 | 64%
37 | COc1cccc(NC(=O)Nc2nc(-c3ccc(OC)c(OC)c3)cs2)c1 | 96%
38 | O=c1c2ccccc2sn1-c1ccccc1 | 68%
39 | O=C(Cn1sc2ccccc2c1=O)Nc1ccc(F)cc1 | 38% (inactive)
40 | CC1(C(=O)OCC(=O)Nc2nc(-c3ccc(F)c(F)c3)cs2)CC1(Cl)Cl (stereo not given) | -8% (inactive)
41 | CN(C)CCCNC(=S)NCC(c1ccc(Cl)cc1Cl)c1c[nH]c2ccccc12 (stereo not given) | -3% (inactive)
42 | O=C(CN1C(=O)/C(=C\c2cccc(Br)c2)Oc2ccccc21)NCCCN1CCOCC1 | 24% (inactive)
43 | CCOC(=O)c1c(NC(=O)COc2ccccc2OCC)sc2c1CC(C)(C)NC2(C)C | 55%
44 | O=C(OCc1ccccc1)N(CCCCN(CCCNCc1ccccc1)C(=O)OCc1ccccc1)CCCNCc1ccccc1 | 88%
45 | N#Cc1c(Nc2ccccc2Cl)s[nH]c1=O | 92%
46 | CN1CCN(CCCNC(=O)c2ccc(/C=C3\Sc4ccccc4N(Cc4ccc(F)cc4)C3=O)cc2)CC1 | -12% (inactive)
47 | CCOC(=O)c1cc(-c2csc(Nc3c(C)cc(C)cc3C)n2)on1 | 68%
48 | Cc1ccc(Nc2nc(NCc3ccco3)c3ccccc3n2)cc1 | 12% (inactive)
49 | O=CNc1cc(-c2ccsc2)cn2c(-c3ccccc3)cnc12 | 41% (inactive)
50 | CCc1ccc(/C=C2/Sc3ccccc3N(CC(=O)NCCCN3CCOCC3)C2=O)cc1 | 14% (inactive)

Row | Compound | inhibition
51 | c1ccc(CNc2nc(NCC3CC3)nc3cc(-c4ccccc4)sc23)cc1 | 86%
52 | CCCCC[C@@H](C)N1C[C@H](COCc2ccccc2)Oc2cc(N3CC[C@@H](N(C)C)C3)ccc2S1(=O)=O | 64%
53 | CCCCCCSc1cccc(-c2nc3ccccn3c2NCc2ccccc2)c1 | 7% (inactive)
54 | CC(C)(c1ccccc1)c1ccc(OCC(O)CNC2CCN(Cc3ccccc3)CC2)cc1 (stereo not given) | 83%
55 | CCCCn1c(=N)n(CC(=O)c2ccc(Br)s2)c2ccccc21 | 91%
56 | COC(=O)c1c(NC(=O)c2nc3ccccc3s2)sc2c1CC(C)(C)NC2(C)C | 51%
57 | COc1ccc([N+](=O)[O-])cc1Nc1c2ccccc2nc2ccccc12 | 10% (inactive)
58 | O=S(=O)(c1ccccc1)c1nnn2c1nc(NC1CCN(Cc3ccccc3)CC1)c1cc(Cl)ccc12 | 88%
59 | CC(=O)Nc1ccc2sn(-c3ccccc3)c(=O)c2c1 | 20% (inactive)
60 | CCc1ccc2nc(N(CCCN(C)C)C(=O)c3ccc(S(=O)(=O)N4CCc5ccccc5C4)cc3)sc2c1 | 67%
61 | CCOc1ccc2[nH]c3c(N4CCc5ccccc5C4)ncnc3c2c1 | -5% (inactive)
62 | CN(c1ccccc1)S(=O)(=O)c1cccc(C(=O)NCCc2c[nH]c3ccccc23)c1 | 23% (inactive)
63 | COc1ccccc1CNc1nc(NCc2ccc(C(C)C)cc2)c2sccc2n1 | 54%
64 | CCC(=C(c1ccc(OC)cc1)c1ccc(OC)cc1)c1cn(CC(O)CN2CCN(C)CC2)c2ccccc12 (stereo not given) | 1% (inactive)
65 | Cn1sc(=O)c2cc(S(=O)(=O)NC3CC3)ccc21 | 63%
66 | CCc1nc2ccc(C(=O)NC3CCN(Cc4ccccc4)CC3)cn2c1N(C)Cc1cc2ccccc2s1 | -4% (inactive)
67 | CCN(CC)CCCNc1ccc(-c2nnc(-c3ccc(OCC(C)C)cc3)o2)cn1 | 52%
68 | CCOc1ccc2nc(N(CCCN(C)C)C(=O)c3ccc(S(=O)(=O)N4CCc5ccccc5C4)cc3)sc2c1 | 91%
69 | CC1=NOC(=O)/C1=C/c1ccc(-c2ccc(Cl)cc2)o1 | 73%
70 | COc1ccc(-n2sc3ccccc3c2=O)cc1 | 45% (inactive)
71 | CCOC(=O)c1nnc(-c2ccccc2)nc1Sc1ccccc1Cl | -8% (inactive)
72 | Cn1cncc1C#Cc1c(-c2ccc(S(C)(=O)=O)cc2)sc2ccccc12 | 13% (inactive)
73 | CCOc1cc(CNCCc2ccc(S(N)(=O)=O)cc2)ccc1OCc1ccc(Cl)cc1 | 90%
74 | CCOC(=O)c1c(CSc2ccccc2)n(C)c2cc(Br)c(O)c(CN(C)C)c12 | 25% (inactive)
75 | COc1ccc(-c2cc(NC=O)c3ncc(-c4ccccc4)n3c2)cc1OC | 63%
